The text below walks through data of patent US10383815B2, “Method and compositions for improving selective catabolysis in cells of keratin surfaces” (ELC Management LLC, priority 2012, dated 2019).

Structures are written as SMILES.

This test deals with PER1 gene expression in skin cells. Briefly: PER1 gene expression in skin cells. In kind it is cell-based. An excerpt: A specific example includes a botanical extract from Echinacea purpurea sold by Symrise under the brand name Symfinity™ 1298 which is an extract of Echinacea purpurea which is standardized during the extraction process to contain about 3% by weight of the total extract composition of cichoric acid. Echinacea extracts from different sources will vary in cichoric acid content, and as such will yield variable results in induction of PER1 gene expression. […] Moreover, each species of Echinacea will differ in content of phenolic and cichoric acids. Ethanolic extract of the roots of Echinacea purpura will provide more cichoric acid than ethanolic extracts of Echineacea angustifolia or Echinacea pallida. The content of active ingredients in any extract is also very dependent on the method of extraction. For example, it is known that in many cases enzymatic browning during the extraction process will reduce the phenolic acid content of the resulting extract.

Turning to `O=C(/C=C/c1ccc(O)c(O)c1)O[C@@H](C(=O)O)[C@@H](O)C(=O)O` [caftaric acid], the PER1 gene expression result is recorded as “does not increase”.
